# Values of other authors, collected in patent US20240415113A1, “COMPOSITION AND METHOD FOR ATTRACTING VESPID WASPS” (BanfieldBio Inc., priority 2023, published 2024).
# Assays:
# [1] = test system: western yellowjackets; conditions: Oregon peach orchard, 10 days in 1969
# [2] = test system: vespid wasps; conditions: 50 μL heptyl butyrate and 1 g chicken meat extract, separately or together in the receiving chamber
structure (smiles),measurement,setting,value
CCCCCCCOC(=O)CCC [Heptyl butyrate],western yellowjackets captured per trap,[1],over 800 western yellowjackets per trap
same,trap catch comparison in words,[2],impeded entry into traps baited with the chicken extract
